Test results reported in patent publication US9163021B2, “Pyrrolo[3,2-c]pyridine tropomyosin-related kinase inhibitors” (Pfizer Limited, priority 2012, dated 2015).

Target: TRKA (Homo sapiens (Human), UniProt P04629)
Experiment: Isolated TRK enzyme assay (HTRF KinEASE-TK), PV3144 TrkA enzyme assay
Assay type: biochemical
Details: arithmetic mean where more than one reading
Summary of the method: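 His-tagged TrkA cytoplasmic domain preactivated with ATP 20 min, then with compound 20 min at room temperature before 1 µM final biotin-TK substrate; HTRF 665/620 nm read.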

TRKA, sequence (P04629 441-796): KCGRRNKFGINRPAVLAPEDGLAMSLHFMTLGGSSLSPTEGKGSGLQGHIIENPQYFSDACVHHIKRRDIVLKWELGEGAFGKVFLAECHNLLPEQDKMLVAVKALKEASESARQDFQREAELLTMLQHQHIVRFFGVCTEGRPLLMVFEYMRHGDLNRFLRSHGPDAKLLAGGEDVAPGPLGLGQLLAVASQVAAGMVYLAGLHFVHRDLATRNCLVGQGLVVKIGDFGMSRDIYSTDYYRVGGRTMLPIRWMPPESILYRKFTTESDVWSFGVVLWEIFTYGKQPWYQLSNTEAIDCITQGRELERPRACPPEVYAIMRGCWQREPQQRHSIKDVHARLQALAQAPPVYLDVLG

| SMILES | IC50 |
| --- | --- |
| O=C(Cc1ccccc1OC(F)(F)F)Nc1cc(C(=O)c2cn(CCO)c3ccncc23)ccn1 [Example 143, N-(4-{[1-(2-hydroxyethyl)-1H-pyrrolo[3,2-c]pyridin-3-yl]carbonyl}pyridin-2-yl)-2-[2-(trifluoromethoxy)phenyl]acetamide] | 986 nM |
| O=C(Cc1ccc(Cl)c(Cl)c1)Nc1cc(C(=O)c2cn(CCO)c3ccncc23)ccn1 [Example 144, 2-(3,4-dichlorophenyl)-N-(4-{[1-(2-hydroxyethyl)-1H-pyrrolo[3,2-c]pyridin-3-yl]carbonyl}pyridin-2-yl)] | 22.2 nM |
| O=C(Cc1ccc(F)cc1F)Nc1cc(C(=O)c2cn(CCO)c3ccncc23)ccn1 [Example 145, 2-(2,4-difluorophenyl)-N-(4-{[1-(2-hydroxyethyl)-1H-pyrrolo[3,2-c]pyridin-3-yl]carbonyl}pyridin-2-yl)acetamide] | 305 nM |
| O=C(Cc1ccc(Cl)cc1)Nc1cc(C(=O)c2cn(CCO)c3ccncc23)ccn1 [Example 146, 2-(4-chlorophenyl)-N-(4-{[1-(2-hydroxyethyl)-1H-pyrrolo[3,2-c]pyridin-3-yl]carbonyl}pyridin-2-yl)acetamide] | 59.4 nM |
| CC(C)c1ccnn1CC(=O)Nc1cc(C(=O)c2cn(CCO)c3ccncc23)ccn1 [Example 147, N-(4-{[1-(2-hydroxyethyl)-1H-pyrrolo[3,2-c]pyridin-3-yl]carbonyl}pyridin-2-yl)-2-[5-(propan-2-yl)-1H-pyrazol-1-yl]acetamide] | 4310 nM |
| O=C(Cc1ccc(F)cc1)Nc1cc(C(=O)c2cn(CCO)c3ccncc23)ccn1 [Example 148, 2-(4-fluorophenyl)-N-(4-{[1-(2-hydroxyethyl)-1H-pyrrolo[3,2-c]pyridin-3-yl]carbonyl}pyridin-2-yl)acetamide] | 424 nM |
| O=C(Cc1cccc(Cl)c1)Nc1cc(C(=O)c2cn(CCO)c3ccncc23)ccn1 [Example 149, 2-(3-chlorophenyl)-N-(4-{[1-(2-hydroxyethyl)-1H-pyrrolo[3,2-c]pyridin-3-yl]carbonyl}pyridin-2-yl)acetamide] | 200 nM |
| Cc1ccn(CC(=O)Nc2cc(C(=O)c3cn(CCO)c4ccncc34)ccn2)n1 [Example 150, N-(4-{[1-(2-hydroxyethyl)-1H-pyrrolo[3,2-c]pyridin-3-yl]carbonyl}pyridin-2-yl)-2-(3-methyl-1H-pyrazol-1-yl)acetamide] | 3080 nM |
| CC(C)(O)Cc1cccc(CC(=O)Nc2cc(C(=O)c3cn(CCO)c4ccncc34)ccn2)c1 [Example 151, N-(4-{[1-(2-hydroxyethyl)-1H-pyrrolo[3,2-c]pyridin-3-yl]carbonyl}pyridin-2-yl)-2-[3-(2-hydroxy-2-methylpropyl)phenyl]acetamide] | 408 nM |
| Cc1cc(C)n(CC(=O)Nc2cc(C(=O)c3cn(CCO)c4ccncc34)ccn2)n1 [Example 152, 2-(3,5-dimethyl-1H-pyrazol-1-yl)-N-(4-{[1-(2-hydroxyethyl)-1H-pyrrolo[3,2-c]pyridin-3-yl]carbonyl}pyridin-2-yl)acetamide] | 2150 nM |
| Cc1cc(C(F)(F)F)nn1CC(=O)Nc1cc(C(=O)c2cn(CCO)c3ccncc23)ccn1 [Example 153, N-(4-{[1-(2-hydroxyethyl)-1H-pyrrolo[3,2-c]pyridin-3-yl]carbonyl}pyridin-2-yl)-2-[5-methyl-3-(trifluoromethyl)-1H-pyrazol-1-yl]acetamide] | 83.9 nM |
| Cn1nc(C(C)(C)C)nc1CC(=O)Nc1cc(C(=O)c2cn(CCO)c3ccncc23)ccn1 [Example 154, 2-(3-tert-butyl-1-methyl-1H-1,2,4-triazol-5-yl)-N-(4-{[1-(2-hydroxyethyl)-1H-pyrrolo[3,2-c]pyridin-3-yl]carbonyl}pyridin-2-yl)acetamide] | 1100 nM |
| Cc1ccnn1CC(=O)Nc1cc(C(=O)c2cn(CCO)c3ccncc23)ccn1 [Example 155, N-(4-{[1-(2-hydroxyethyl)-1H-pyrrolo[3,2-c]pyridin-3-yl]carbonyl}pyridin-2-yl)-2-(5-methyl-1H-pyrazol-1-yl)acetamide] | 2390 nM |
| O=C(Cn1cc(C(F)(F)F)nn1)Nc1cc(C(=O)c2cn(CCO)c3ccncc23)ccn1 [Example 156, N-(4-{[1-(2-hydroxyethyl)-1H-pyrrolo[3,2-c]pyridin-3-yl]carbonyl}pyridin-2-yl)-2-[4-(trifluoromethyl)-1H-1,2,3-triazol-1-yl]acetamide] | 342 nM |
| CC(C)n1ncc(CC(=O)Nc2cc(C(=O)c3cn(CCO)c4ccncc34)ccn2)c1C(F)(F)F [Example 157, N-(4-{[1-(2-hydroxyethyl)-1H-pyrrolo[3,2-c]pyridin-3-yl]carbonyl}pyridin-2-yl)-2-[1-(propan-2-yl)-5-(trifluoromethyl)-1H-pyrazol-4-yl]acetamide] | 420 nM |
| O=C(Cn1nccn1)Nc1cc(C(=O)c2cn(CCO)c3ccncc23)ccn1 [Example 158, N-(4-{[1-(2-hydroxyethyl)-1H-pyrrolo[3,2-c]pyridin-3-yl]carbonyl}pyridin-2-yl)-2-(2H-1,2,3-triazol-2-yl)acetamide] | 9800 nM |
| CC(C)c1cn(CC(=O)Nc2cc(C(=O)c3cn(CCO)c4ccncc34)ccn2)nn1 [Example 159, N-(4-{[1-(2-hydroxyethyl)-1H-pyrrolo[3,2-c]pyridin-3-yl]carbonyl}pyridin-2-yl)-2-[4-(propan-2-yl)-1H-1,2,3-triazol-1-yl]acetamide] | 271 nM |

| SMILES | IC50 |
| --- | --- |
| Cc1noc(C)c1CC(=O)Nc1cc(C(=O)c2cn(C(C)C)c3ccncc23)ccn1 [Example 160, 2-(3,5-dimethyl-1,2-oxazol-4-yl)-N-(4-{[1-(propan-2-yl)-1H-pyrrolo[3,2-c]pyridin-3-yl]carbonyl}pyridin-2-yl)acetamide] | 8990 nM |
| Cc1nc(CC(=O)Nc2cc(C(=O)c3cn(C(C)C)c4ccncc34)ccn2)cs1 [Example 161, 2-(2-methyl-1,3-thiazol-4-yl)-N-(4-{[1-(propan-2-yl)-1H-pyrrolo[3,2-c]pyridin-3-yl]carbonyl}pyridin-2-yl)acetamide] | 103 nM |
| Cc1nc(CC(=O)Nc2cc(C(=O)c3cn(C(C)C)c4ccncc34)ccn2)c(C)s1 [Example 162, 2-(2,5-dimethyl-1,3-thiazol-4-yl)-N-(4-{[1-(propan-2-yl)-1H-pyrrolo[3,2-c]pyridin-3-yl]carbonyl}pyridin-2-yl)acetamide] | 56 nM |
| CC(C)n1cc(C(=O)c2ccnc(NC(=O)Cn3cc(C(F)(F)F)nn3)c2)c2cnccc21 [Example 163, N-(4-{[1-(propan-2-yl)-1H-pyrrolo[3,2-c]pyridin-3-yl]carbonyl}pyridin-2-yl)-2-[4-(trifluoromethyl)-1H-1,2,3-triazol-1-yl]acetamide] | 10.7 nM |
| Cc1cc(C)n(CC(=O)Nc2cc(C(=O)c3cn(C(C)C)c4ccncc34)ccn2)n1 [Example 164, 2-(3,5-dimethyl-1H-pyrazol-1-yl)-N-(4-{[1-(propan-2-yl)-1H-pyrrolo[3,2-c]pyridin-3-yl]carbonyl}pyridin-2-yl)acetamide] | 33 nM |
| CC(C)n1cc(C(=O)c2ccnc(NC(=O)Cc3ccc(Cl)c(Cl)c3)c2)c2cnccc21 [Example 165, 2-(3,4-dichlorophenyl)-N-(4-{[1-(propan-2-yl)-1H-pyrrolo[3,2-c]pyridin-3-yl]carbonyl}pyridin-2-yl)acetamide] | 5.68 nM |
| CC(C)n1cc(C(=O)c2ccnc(NC(=O)Cn3cccn3)c2)c2cnccc21 [Example 166, N-(4-{[1-(propan-2-yl)-1H-pyrrolo[3,2-c]pyridin-3-yl]carbonyl}pyridin-2-yl)-2-(1H-pyrazol-1-yl)acetamide] | 955 nM |
| Cc1nc(C)c(CC(=O)Nc2cc(C(=O)c3cn(C(C)C)c4ccncc34)ccn2)s1 [Example 167, 2-(2,4-dimethyl-1,3-thiazol-5-yl)-N-(4-{[1-(propan-2-yl)-1H-pyrrolo[3,2-c]pyridin-3-yl]carbonyl}pyridin-2-yl)acetamide] | 181 nM |
| Cc1ccnn1CC(=O)Nc1cc(C(=O)c2cn(C(C)C)c3ccncc23)ccn1 [Example 169, 2-(5-methyl-1H-pyrazol-1-yl)-N-(4-{[1-(propan-2-yl)-1H-pyrrolo[3,2-c]pyridin-3-yl]carbonyl}pyridin-2-yl)acetamide] | 83.6 nM |
| CC(C)n1cc(C(=O)c2ccnc(NC(=O)Cn3cnnn3)c2)c2cnccc21 [Example 170, N-(4-{[1-(propan-2-yl)-1H-pyrrolo[3,2-c]pyridin-3-yl]carbonyl}pyridin-2-yl)-2(1H-tetrazol-1-yl)acetamide] | 6510 nM |
| CC(C)n1cc(C(=O)c2ccnc(NC(=O)Cc3nc(C(C)(C)C)nn3C)c2)c2cnccc21 [Example 171, 2(3-tert-butyl-1-methyl-1H-1,2,4-triazol-5-yl)-N-(4-{[1-(propan-2-yl)-1H-pyrrolo[3,2-c]pyridin-3-yl]carbonyl}pyridin-2-yl)acetamide] | 36.1 nM |
| CC(C)n1cc(C(=O)c2ccnc(NC(=O)Cc3ccc(C(F)(F)F)c(F)c3)c2)c2cnccc21 [Example 172, 2-(3-fluoro-4-(trifluoromethyl)phenyl]-N-(4-{[1-(propan-2-yl)-1H-pyrrolo[3,2-c]pyridin-3-yl]carbonyl}-pyridin-2-yl)acetamide] | 8.49 nM |
| CC(C)n1cc(C(=O)c2ccnc(NC(=O)c3cccc(OC(F)(F)F)c3)c2)c2cnccc21 [Example 173, N-(4-{[1-(propan-2-yl)-1H-pyrrolo[3,2-c]pyridin-3-yl]carbonyl}pyridin-2-yl)-3-(trifluoromethoxy)-benzamide] | 3.85 nM |
| Cc1nc(CC(=O)Nc2cc(C(=O)c3cn(C(C)C)c4ccncc34)ccn2)c(C2CC2)o1 [Example 174, 2(5-cyclopropyl-2-methyl-1,3-oxazol-4-yl)-N-(4-{[1-(propan-2-yl)-1H-pyrrolo[3,2-c]pyridin-3-yl]carbonyl}pyridin-2-yl)acetamide] | 51.4 nM |
| CC(C)n1cc(C(=O)c2ccnc(NC(=O)Cc3ccc(C(F)(F)F)cc3)c2)c2cnccc21 [Example 175, N-(4-{[1-(propan-2-yl)-1H-pyrrolo[3,2-c]pyridin-3-yl]carbonyl}pyridin-2-yl)-2-[4-(trifluoromethyl)phenyl]acetamide] | 5.3 nM |
| COCc1cn(CC(=O)Nc2cc(C(=O)c3cn(C(C)C)c4ccncc34)ccn2)nn1 [Example 176] | 904 nM |
